# In ChEMBL document CHEMBL1136061, “Novel potent antagonists of human neuropeptide Y Y5 receptors. Part 2: substituted benzo[a]cycloheptene derivatives” (Bioorg Med Chem Lett, 2002):
# Columns and labels:
# [1] = molecular target: T1, Neuropeptide Y receptor type 1 (Homo sapiens, UniProt P25929); experiment: Concentration that inhibited 50% of total specific binding of [125I]PYY ligand to human NPY-Y1 receptor
# T1 sequence (P25929 whole entry): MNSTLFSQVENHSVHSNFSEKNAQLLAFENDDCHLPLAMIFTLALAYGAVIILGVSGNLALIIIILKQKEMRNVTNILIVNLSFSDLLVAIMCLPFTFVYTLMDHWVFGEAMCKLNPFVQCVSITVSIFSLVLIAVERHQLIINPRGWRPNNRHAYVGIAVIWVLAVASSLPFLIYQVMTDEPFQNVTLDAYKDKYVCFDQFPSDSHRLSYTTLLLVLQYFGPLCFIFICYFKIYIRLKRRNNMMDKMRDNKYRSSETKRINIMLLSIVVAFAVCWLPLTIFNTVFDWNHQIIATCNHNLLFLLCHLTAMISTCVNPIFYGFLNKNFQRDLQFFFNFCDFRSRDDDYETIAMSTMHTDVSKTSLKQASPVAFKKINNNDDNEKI
# [2] = molecular target: T2, Neuropeptide Y receptor type 5 (Homo sapiens, UniProt Q15761); experiment: (§1) Concentration that inhibited 50% of total specific binding of [125I]PYY ligand to human NPY-Y5 receptor
# T2 sequence (Q15761 whole entry): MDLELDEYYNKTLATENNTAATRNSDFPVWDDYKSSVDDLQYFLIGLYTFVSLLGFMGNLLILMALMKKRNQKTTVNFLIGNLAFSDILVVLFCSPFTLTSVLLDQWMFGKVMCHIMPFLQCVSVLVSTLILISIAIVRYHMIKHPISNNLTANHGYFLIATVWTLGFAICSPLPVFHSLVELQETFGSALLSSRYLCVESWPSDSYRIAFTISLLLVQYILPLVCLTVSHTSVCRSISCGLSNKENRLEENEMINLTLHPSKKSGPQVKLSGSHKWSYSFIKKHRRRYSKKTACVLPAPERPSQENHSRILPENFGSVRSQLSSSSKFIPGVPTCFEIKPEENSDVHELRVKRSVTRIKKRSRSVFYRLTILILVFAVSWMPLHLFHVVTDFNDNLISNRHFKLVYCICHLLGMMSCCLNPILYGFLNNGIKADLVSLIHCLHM
# [3] = molecular target: T3, Neuropeptide Y receptor type 5 (Homo sapiens) (UniProt Q15761); experiment: as §1
# T3 sequence (whole entry): T2 sequence (Q15761 whole entry)
SMILES,IC50 [1] [nM],IC50 [2] [nM],inhibition [3] [%]
COc1ccc2c(c1)CC(CNC1CCN(CCNS(=O)(=O)c3cccc4ccccc34)CC1)CCC2 (stereo not drawn),29000,39,
COc1ccc2c(c1)CCCC(NCCN1CCC(CNS(=O)(=O)c3cccc4ccccc34)CC1)C2 (stereo not drawn),,1000,
O=S(=O)(NCCN1CCC(CNC2CCCc3ccc(Cl)cc3C2)CC1)c1cccc2ccccc12 (stereo not drawn),8500,85,
COc1ccc2c(c1)CC(CNCCN1CCC(CNS(=O)(=O)c3cccc4ccccc34)CC1)CCC2 (stereo not drawn),2800,540,
O=S(=O)(NC[C@H]1CC[C@@H](CNCC2CCc3ccccc3C2)CC1)c1cccc2ccccc12 (stereo partly drawn),1300,38,
COc1ccc2c(c1OC)CC(NCC1CN(CCNS(=O)(=O)c3cccc4ccccc34)C1)CCC2 (stereo not drawn),,140,
O=S(=O)(NCCN1CCC(CNC2CCCc3ccccc3C2)CC1)c1cccc2ccccc12 (stereo not drawn),,210,
O=S(=O)(NCCN1CC(CNC2CCCc3ccc(Cl)cc3C2)C1)c1cccc2ccccc12 (stereo not drawn),,310,
COc1ccc2c(c1)CC(CNCC1CN(CCNS(=O)(=O)c3cccc4ccccc34)C1)CCC2 (stereo not drawn),22000,86,
COc1cccc2c1CCCC(NCCN1CCC(CNS(=O)(=O)c3cccc4ccccc34)CC1)C2 (stereo not drawn),,> 1000,
O=C(O)COc1ccc2c(c1)CC(NCC1CCN(CCNS(=O)(=O)c3cccc4ccccc34)CC1)CCC2 (stereo not drawn),,,25.7
CCOC(=O)COc1ccc2c(c1)CC(NCC1CCN(CCNS(=O)(=O)c3cccc4ccccc34)CC1)CCC2 (stereo not drawn),,680,
Nc1ccc2c(c1)CC(NCC1CCN(CCNS(=O)(=O)c3cccc4ccccc34)CC1)CCC2 (stereo not drawn),,52,
Cc1ccc2c(c1)CC(NCC1CCN(CCNS(=O)(=O)c3cccc4ccccc34)CC1)CCC2 (stereo not drawn),18000,72,
COc1ccc2c(c1)CC(CNCC1CCN(CCNS(=O)(=O)c3cccc4ccccc34)CC1)CCC2 (stereo not drawn),9600,16,
Cc1ccc2c(c1)CC(NCC1CN(CCNS(=O)(=O)c3cccc4ccccc34)C1)CCC2 (stereo not drawn),,190,
COc1cc2c(cc1OC)CC(NCC1CCN(CCNS(=O)(=O)c3cccc4ccccc34)CC1)CCC2 (stereo not drawn),17000,68,
COc1ccc2c(c1)CC(NCCN1CCC(CNS(=O)(=O)c3cccc4ccccc34)CC1)CCC2 (stereo not drawn),19000,740,
COc1ccc2c(c1)CC(NC1CCN(CCNS(=O)(=O)c3cccc4ccccc34)CC1)CCC2 (stereo not drawn),35000,66,
COc1ccc2c(c1)CC(NCC1CCN(CCNS(=O)(=O)c3cccc4ccccc34)CC1)CCC2 (stereo not drawn),14000,45,
O=[N+]([O-])c1ccc2c(c1)CC(NCC1CCN(CCNS(=O)(=O)c3cccc4ccccc34)CC1)CCC2 (stereo not drawn),15000,79,
